What was measured:
[1] = test system: TGF-β production in human fibroblasts (NHDF cells); experiment: TGF-β production in human fibroblasts (TGF-β1 Emax ImmunoAssay System); assay type: cell-based; conditions: for enhancement of TGF-β production: concrete data not shown; for TGF-β production level: 24 hours, culture supernatant
Procedure: NHDF cells, a human fibroblast, commercialized by Kurabo Industries Ltd., Okayama, Japan, were seeded in 96-well microplates (commercialized by Becton Dickinson, N.J., USA) with a DMEM medium supplemented with 10% (v/v) fetal calf serum to give a cell density of 2.5×10^4 cells/well, and incubated for 24 hours under a 5% (v/v) CO2 condition. Thereafter, the supernatant in each microplate was removed, replaced with a fresh DMEM medium containing 0, 0.5 or 1.5 mM of 10-HDA and 0.2 μg/ml of AA2G, and cultured for 24 hours. After completion of the culture, the level of TGF-β in a supernatant of each well of the microplates was quantified by using “TGF-β1 E MAX IMMUNO ASSAY SYSTEM”, commercialized by Promega Corp., Wis., USA, and the data were statistically handled.

NHDF cells = experiment: collagen assay: collagen production level of NHDF cells (Sircol Soluble Collagen Assay Kit); assay type: cell-based, human; conditions: for concentration dependence of the action of enhancing collagen production (FIG. 3) / order of the levels of action of enhancing collagen production next to 10-HDA (FIG. 3): 0.02 to 1.5 mM fatty acid with 50 μM AA2G; for action of enhancing collagen production (FIG. 1): 5 days culture; for action of enhancing the collagen production by L-ascorbic acid: used in combination with L-ascorbic acid
Procedure: NHDF cells, a human fibroblast, were seeded in a 96-well microplate (commercialized by Becton Dickinson, N.J., USA) with […] (designated as “DMEM medium” hereinafter, commercialized by Nissui Pharmaceutical Co., Ltd., Tokyo, Japan)(pH 7.1 to 7.4), supplemented with 10% (v/v) fetal calf serum and an adequate amount of penicillin, to give a cell density of 2.5×10^4 cells/well, and incubated at 37° C. for 24 hours under a 5% (v/v) CO2 condition. Thereafter, the supernatant was replaced with 200 μl of a DMEM medium supplemented with a sample having a prescribed concentration and/or 50 μM of L-ascorbic acid 2-glucoside (a product name of “AA2G” with a purity of 98.0% or over, produced by Hayashibara Biochemical Laboratories, Inc., Okayama, Japan), and further cultured for another five days. After completion of the culture, the collagen production level from cells in each well of the microplate was quantified by using “Sircol™ Soluble Collagen Assay Kit”, commercialized by Biocolar Ltd., Northern Ireland.
The action of enhancing the collagen production by 10-HDA was examined by the collagen assay shown in Experiment 1. In the collagen assay, 150 μg/ml of 10-HDA and/or a DMEM medium containing 50 μM of the same AA2G as used in Experiment 1 were used to examine the action of enhancing the collagen production by 10-HDA. As a control, there were provided two systems with 50 μM of AA2G or a DMEM medium free of AA2G, both of which were free of sample. The results are in FIG. 1.
The relationship between the concentration of 10-HDA and the action of enhancing collagen production was also studied. In the collagen assay, using a DMEM medium containing 0 to 300 μg/ml of 10-HDA as a sample and 50 μM of AA2G, the action of enhancing the collagen production by 10-HDA was examined. As a control, a DMEM medium containing 50 μM of AA2G free of sample was provided. The results are in FIG. 2.
The results are in FIG. 3.
To examine the influence of 10-HDA on the action of enhancing the collagen production by L-ascorbic acid or AA2G, the following experiment was conducted: In the collagen assay shown in Experiment 1, the levels of collagen production in cell culture by L-ascorbic acid or 10-HDA were compared and analyzed using a DMEM medium containing as a sample 0, 0.1, 0.2 or 0.5 mg/ml of 10-HDA and 50 μM of L-ascorbic acid or AA2G as L-ascorbic acids in terms of L-ascorbic acid, and another DMEM medium containing as a sample 0, 0.1, 0.2 or 0.5 mg/ml of 10-HDA but free of L-ascorbic acids. The results are in FIG. 4.

With `O=C(O)CCCCCCCCC(=O)O` [sebacic acid] as the compound, how does the “enhancement of TGF-β production” value [1] read?
The value was “also enhance TGF-β production”.

What does the source list for `CCCCCCCC=CC(=O)O` [2-decenoic acid]?
concentration dependence of the action of enhancing collagen production (FIG. 3) (NHDF cells): roughly in a concentration dependent manner; order of the levels of action of enhancing collagen production next to 10-HDA (FIG. 3) (NHDF cells): in the order of 10-hydroxydecanoic acid, 2-decenoic acid, decanoic acid, and sebacic acid; enhancement of TGF-β production [1]: also enhance TGF-β production

`O=C(O)C=CCCCCCCCO` [10-HDA, 10-hydroxy-2-decenoic acid] was tested. Which “action of enhancing collagen production (FIG. 4)” value (NHDF cells; 0, 0.1, 0.2 or 0.5 mg/ml 10-HDA in the presence of 50 μM AA2G (in terms of L-ascorbic acid)) did it give?
Its value is “action of enhancing collagen production in a concentration dependent manner”.

What about the “action of enhancing collagen production (FIG. 4)” value (NHDF cells; 0, 0.1, 0.2 or 0.5 mg/ml 10-HDA in the presence of 50 μM L-ascorbic acid) of the same compound?
The value was “action of enhancing collagen production in a concentration dependent manner”.

And the “concentration dependence of the action of enhancing collagen production (FIG. 2)” value (NHDF cells; 0 to 300 μg/ml 10-HDA with 50 μM AA2G)?
The value was “concentration-dependent action of enhancing collagen production”.

And the “action of enhancing collagen production (FIG. 1)” value (NHDF cells; 150 μg/ml 10-HDA in combination with 50 μM AA2G)?
The value was “distinct action of enhancing collagen production”.

What about the “action of enhancing collagen production (FIG. 1)” value (NHDF cells; 150 μg/ml 10-HDA, absence of AA2G) of the same compound?
Its value is “did not show the action of enhancing collagen production”.

And the “action of enhancing collagen production (FIG. 3)” value (NHDF cells; 0.02, 0.06, 0.17, 0.5 or 1.5 mM fatty acid with 50 μM AA2G)?
Its value is “significantly high action of enhancing collagen production”.

And the “action of enhancing collagen production with AA2G relative to that attained with L-ascorbic acid (FIG. 4)” value (NHDF cells; 10-HDA with 50 μM AA2G versus 50 μM L-ascorbic acid)?
The value was “about two-times higher”.

What about the “action of inducing collagen production when used alone” value (NHDF cells; used alone, without L-ascorbic acid) of the same compound?
The value was “did not show an action of inducing collagen production”.

And the “action of enhancing the collagen production by L-ascorbic acid” value (NHDF cells)?
Its value is “exhibited an action of enhancing the collagen production by L-ascorbic acid”.

And the “action of enhancing the collagen production by L-ascorbic acid” value (NHDF cells; listed as Ingredient X)?
The value was “This result coincided with that of Ingredient X”.

What about the “concentration giving maximum action of enhancing collagen production (FIG. 3)” value (NHDF cells; with 50 μM AA2G) of the same compound?
Its value is no less than 0.17 mM.

What about the TGF-β production level ([1]; 0.5 mM 10-HDA with 0.2 μg/ml AA2G) of the same compound?
The TGF-β production level was 292 ± 68 pg/mL.

What about the TGF-β production level ([1]; 1.5 mM 10-HDA with 0.2 μg/ml AA2G) of the same compound?
Its TGF-β production level is 378 ± 74 pg/mL.

And the “enhancement of TGF-β production in human fibroblasts” value ([1]; in the presence of AA2G, 0 to 1.5 mM)?
Its value is “enhances the TGF-β production in human fibroblasts in a concentration dependent manner”.

`O=C1O[C@H]([C@@H](O)CO)C(O)=C1O[C@H]1O[C@H](CO)[C@@H](O)[C@H](O)[C@H]1O` [AA2G, L-ascorbic acid 2-glucoside] was tested. Which “action of enhancing collagen production of L-ascorbic acid derivatives used in combination with fatty acids” value (NHDF cells; in combination with fatty acids such as 10-HDA, concrete data not shown) did it give?
Its value is “more remarkable action of enhancing collagen production”.

Which “enhancement of TGF-β production” value [1] does the source give for `CCCCCCCCCC(=O)O` [decanoic acid] here?
Its value is “also enhance TGF-β production”.

`O=C(O)CCCCCCCCCO` [10-hydroxydecanoic acid] was tested. Which “concentration dependence of the action of enhancing collagen production (FIG. 3)” value (NHDF cells) did it give?
Its value is “roughly in a concentration dependent manner”.

What about the “order of the levels of action of enhancing collagen production next to 10-HDA (FIG. 3)” value (NHDF cells) of the same compound?
Its value is “in the order of 10-hydroxydecanoic acid, 2-decenoic acid, decanoic acid, and sebacic acid”.

What about the “enhancement of TGF-β production” value [1] of the same compound?
The value was “also enhance TGF-β production”.
